Measured values as given in patent US10336732B2, “1-heterocyclyl isochromanyl compounds and analogs for treating CNS disorders” (Sunovion Pharmaceuticals Inc., priority 2015, dated 2019).

Experiments:
κ (KOP) = molecular target: T1, κ (KOP) (Rattus norvegicus, UniProt P34975); experiment: In vitro radioligand binding assay, κ (KOP), [3H]U 69593; settings: rat recombinant (CHO cells)
T1 construct: expressed in transfected cells; host or cells: CHO cells
Procedure: Certain compounds were tested by in vitro binding assays using standard procedures. […] These receptors and assays are well known to those skilled in the art, as exemplified by the following: Abramovitz, M. et al. (2000), Biochem. Biophys. Acta., 1483: 285-293 (EP4, IP (PGI2)); Aharony, D. et al. (1993), Mol. Pharmacol., 44: 356-363 (NK2); Ardati, A. et al. (1997), Mol. Pharmacol., 51: 816-824 (NOP (ORL1)); Bignon, E. et al. (1999), J. Pharmacol. Exp. Ther. 289: 742-751 (CCK1 (CCKA)); Bloomquist, B. T. et al. (1998), Biochem. Biophys. Res. Commun., 243: 474-479 (GAL2); Brockhaus, M. et al. (1990), Proc. Natl. Acad. Sci. U.S.A., 87: 3127-3131 (TNF-α); Brown, G. B. (1986), J. Neurosci., 6: 2064-2070 (Na+ channel (site 2)); Buchan, K. W. et al. (1994), Brit. J. Pharmacol., 112: 1251-1257 (ETA); Cesura, A. M. et al. (1990), Mol. Pharmacol., 37: 358-366 (MAO-A); Choi, D. S. et al. (1994), FEBS Lett., 352: 393-399 (5-HT2B); Clark, A. F. et al. (1996), Invest. Ophtalmol. Vis. Sci., 37: 805-813 (GR); Couvineau, A. et al. (1985), Biochem. J., 231: 139-143 (VPAC1 (VIP1)); Dorje, F. et al. (1991), J. Pharmacol. Exp. Ther., 256: 727-733 (M1, M2, M3, M4); Ferry, G. et al. (2001), Eur. J. Pharmacol., 417: 77-89 (PPARγ); Fuchs, S. et al. (2001), Mol. Med., 7: 115-124 (ETB); Fuhlendorff, J. et al. (1990), Proc. Natl. Acad. Sci. U.S.A., 87: 182-186 (Y2); Ganapathy M E. et al. (1999), J. Pharmacol. Exp. Ther., 289: 251-260 (sigma (non-selective)); Gopalakrishnan, M. et al. (1996), J. Pharmacol. Exp. Ther., 276: 289-297 (N neuronal α4β2); Greengrass, P. and Bremner, R. (1979), Eur. J. Pharmacol., 55: 323-326 (α1 (non-selective)); Grandy, D. K. et al. (1989), Proc. Natl. Acad. Sci. U.S.A., 86: 9762-9766 (D25); Guard, S. et al. (1993), Eur. J. Pharmacol., 240:177-184 (BB (non-selective)); Heuillet, E. et al. (1993), J. Neurochem., 60: 868-876 (NK1, P2X); Hope, A. G. et al. (1996), Brit. […]

GABA (non-selective) = experiment: In vitro radioligand binding assay, GABA (non-selective), [3H]GABA; settings: rat cerebral cortex membranes
Procedure: (§1) Certain compounds were tested by in vitro binding assays using standard procedures. […] These receptors and assays are well known to those skilled in the art, as exemplified by the following: Abramovitz, M. et al. (2000), Biochem. Biophys. Acta., 1483: 285-293 (EP4, IP (PGI2)); Aharony, D. et al. (1993), Mol. Pharmacol., 44: 356-363 (NK2); Ardati, A. et al. (1997), Mol. Pharmacol., 51: 816-824 (NOP (ORL1)); Bignon, E. et al. (1999), J. Pharmacol. Exp. Ther. 289: 742-751 (CCK1 (CCKA)); Bloomquist, B. T. et al. (1998), Biochem. Biophys. Res. Commun., 243: 474-479 (GAL2); Brockhaus, M. et al. (1990), Proc. Natl. Acad. Sci. U.S.A., 87: 3127-3131 (TNF-α); Brown, G. B. (1986), J. Neurosci., 6: 2064-2070 (Na+ channel (site 2)); Buchan, K. W. et al. (1994), Brit. J. Pharmacol., 112: 1251-1257 (ETA); Cesura, A. M. et al. (1990), Mol. Pharmacol., 37: 358-366 (MAO-A); Choi, D. S. et al. (1994), FEBS Lett., 352: 393-399 (5-HT2B); Clark, A. F. et al. (1996), Invest. Ophtalmol. Vis. […]

sigma (non-selective) = experiment: In vitro radioligand binding assay, sigma (non-selective), [3H]DTG, Jurkat cells; settings: Jurkat cells (endogenous)
Procedure: as §1

5-HT transporter = molecular target: T2, 5-HT transporter (Homo sapiens, UniProt P31645); experiment: In vitro radioligand binding assay, 5-HT transporter, [3H]imipramine; settings: human recombinant (CHO cells)
T2 construct: expressed in transfected cells; host or cells: CHO cells
Procedure: as §1

T1 sequence (P34975 whole entry): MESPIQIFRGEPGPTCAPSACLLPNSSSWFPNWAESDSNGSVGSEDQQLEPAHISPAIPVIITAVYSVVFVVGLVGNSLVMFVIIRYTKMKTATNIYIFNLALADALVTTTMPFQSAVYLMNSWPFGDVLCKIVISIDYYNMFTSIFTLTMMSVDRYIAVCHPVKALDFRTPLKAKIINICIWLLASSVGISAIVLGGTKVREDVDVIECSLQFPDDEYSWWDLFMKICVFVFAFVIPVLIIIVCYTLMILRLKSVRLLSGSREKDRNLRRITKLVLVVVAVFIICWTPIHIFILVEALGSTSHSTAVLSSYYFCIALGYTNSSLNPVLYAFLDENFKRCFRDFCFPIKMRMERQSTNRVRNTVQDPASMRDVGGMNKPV
T2 sequence (P31645 whole entry): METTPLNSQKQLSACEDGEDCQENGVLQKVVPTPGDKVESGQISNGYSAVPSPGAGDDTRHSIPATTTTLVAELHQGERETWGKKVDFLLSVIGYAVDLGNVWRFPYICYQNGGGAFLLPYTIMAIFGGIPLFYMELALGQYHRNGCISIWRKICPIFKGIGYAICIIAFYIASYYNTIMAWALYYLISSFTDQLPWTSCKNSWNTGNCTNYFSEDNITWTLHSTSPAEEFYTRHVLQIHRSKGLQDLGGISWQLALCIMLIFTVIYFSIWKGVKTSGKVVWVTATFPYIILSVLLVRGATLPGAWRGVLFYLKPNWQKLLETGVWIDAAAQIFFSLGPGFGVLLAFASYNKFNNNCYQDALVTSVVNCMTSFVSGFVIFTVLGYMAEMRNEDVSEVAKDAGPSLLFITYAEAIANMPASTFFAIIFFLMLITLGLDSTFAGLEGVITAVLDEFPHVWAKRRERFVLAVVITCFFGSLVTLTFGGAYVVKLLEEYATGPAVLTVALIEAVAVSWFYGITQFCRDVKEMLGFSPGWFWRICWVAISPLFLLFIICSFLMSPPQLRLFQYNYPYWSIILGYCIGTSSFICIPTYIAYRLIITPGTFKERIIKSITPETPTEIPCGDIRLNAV

Compound	κ (KOP) percent inhibition of specific binding (κ (KOP)) [%]	GABA percent inhibition of specific binding (GABA (non-selective)) [%]	sigma percent inhibition of specific binding (sigma (non-selective))	Sert percent inhibition of specific binding (5-HT transporter) [%]
Clc1ccc2c(c1)[C@H]([C@@H]1CCCN1)OCC2 [Compound I-29, (S)-2-((R)-7-chloroisochroman-1-yl)pyrrolidine]	89			
Fc1ccc2c(c1)[C@H]([C@@H]1CCCN1)OCC2 [Compound I-5, (2S)-2-((R)-7-fluoroisochroman-1-yl)pyrrolidine]	71	57		
Fc1cccc2c1CCO[C@@H]2[C@@H]1CCN1 [Compound I-94, (S)-2-((S)-5-fluoroisochroman-1-yl)azetidine]	67		sigma (85%)	
Fc1ccc2c(c1)CCO[C@H]2[C@@H]1CCN1 [Compound I-90, (S)-2-((R)-6-fluoroisochroman-1-yl)azetidine]			63%	80
